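Results reflect a 48-hour exposure of cells in 96-well plates to compound at five concentrations. TGI marks complete inhibition of growth.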
Columns and labels:
Assay in all cases: NCI tumour cell line growth inhibition, 48 h
A498 renal = tested on: A498 renal
DLD-1 colon = tested on: DLD-1 colon
DMS 114 small cell lung = tested on: DMS 114 small cell lung
DMS 273 small cell lung = tested on: DMS 273 small cell lung
KM12 colon = tested on: KM12 colon
KM20L2 colon = tested on: KM20L2 colon
LXFL 529 NSCLC = tested on: LXFL 529 NSCLC
M19-MEL melanoma = tested on: M19-MEL melanoma
RXF-631 renal = tested on: RXF-631 renal
SNB-78 CNS = tested on: SNB-78 CNS
SW-620 colon = tested on: SW-620 colon
XF 498 CNS = tested on: XF 498 CNS
HOP-18 NSCLC = tested on: HOP-18 NSCLC
HS 578T breast = tested on: HS 578T breast
MCF7 breast = tested on: MCF7 breast

SMILES	TGI (A498 renal) [µM]	TGI (DLD-1 colon) [µM]	TGI (DMS 114 small cell lung) [µM]	TGI (DMS 273 small cell lung) [µM]	TGI (KM12 colon) [µM]	TGI (KM20L2 colon) [µM]	TGI (LXFL 529 NSCLC) [µM]	TGI (M19-MEL melanoma) [µM]	TGI (RXF-631 renal) [µM]	TGI (SNB-78 CNS) [µM]	TGI (SW-620 colon) [µM]	TGI (XF 498 CNS) [µM]	TGI (HOP-18 NSCLC) [µM]	TGI (HS 578T breast) [µM]	TGI (MCF7 breast) [µM]
COc1ccccc1NC(=O)CC(=O)N1N=C(c2ccccc2)C(N=Nc2ccc(Cl)cc2)C1=O (stereo unspecified)	35.2	> 100	> 100	> 100	> 100	> 100	> 100	> 100	> 100	> 100	> 100	> 100	–	–	–
CC(C)C(Sc1nc(-c2ccccc2)c(-c2ccccc2)[nH]1)c1n[nH]c(=S)n1-c1ccccc1 (stereo unspecified)	> 100	> 100	–	> 100	30.5	62.8	54.4	35.5	–	> 100	> 100	80.3	–	–	–
O=C(O)c1ccc([C@@H]2C(=O)N(O)[C@@H]3C=CC[C@@H]32)cc1	–	> 100	> 100	> 100	> 100	–	> 100	> 100	> 100	> 100	> 100	> 100	–	–	–
CC1=C(C(=O)CC(=O)C(=O)Nc2ccc(C)c(C)c2)Sc2ccccc2N1	> 100	> 100	> 100	> 100	> 100	> 100	> 100	> 100	–	> 100	> 100	> 100	> 100	–	–
COc1cc(CNc2cnc3ccc(N)cc3n2)cc(OC)c1OC	> 100	–	> 100	> 100	> 100	> 100	> 100	> 100	–	> 100	> 100	–	> 100	–	–
O=C(Cc1nc2ccc([N+](=O)[O-])cc2[nH]c1=O)C(=O)Nc1ccccc1[N+](=O)[O-]	> 100	> 100	> 100	> 100	> 100	> 100	> 100	> 100	–	–	> 100	–	–	–	–
Cc1nc2c3c(ccc2[nH]c1=O)C(=O)c1ccccc1C3=O	> 100	> 100	> 100	–	> 100	> 100	> 100	> 100	–	–	> 100	> 100	> 100	–	–
COC(=O)C(=O)C(/C(=N/N)C(=O)Nc1ccccc1C(N)=O)c1nc2ccc([N+](=O)[O-])cc2[nH]c1=O (stereo unspecified)	> 100	> 100	> 100	> 100	> 100	> 100	> 100	> 100	–	> 100	> 100	> 100	–	–	–
CC(C)OP(=O)(OC(C)C)C(=NCCN=C(NNc1ccccc1[N+](=O)[O-])P(=O)(OC(C)C)OC(C)C)NNc1ccccc1[N+](=O)[O-]	> 100	> 100	> 100	> 100	> 100	60.2	> 100	> 100	–	–	> 100	–	–	–	–
CCN(CC)Cc1cc(Nc2ccnc3ccc4nn(C)nc4c23)ccc1O	–	–	–	–	25.9	25.3	27.6	24.7	31.3	44.9	28.2	24.3	–	–	–
CN(C)C(=NC#N)N(Cc1ccccc1)Cc1ccccc1	> 100	> 100	–	> 100	> 100	> 100	> 100	> 100	–	> 100	33.7	–	> 100	–	–
CCOC(=O)C1SC(=Nc2ccc(Cl)cc2Cl)N=C1C (stereo unspecified)	> 100	> 100	> 100	> 100	> 100	> 100	> 100	> 100	–	> 100	> 100	94.1	> 100	–	–
NC(CCCCNCc1ccccc1)C(=O)O (stereo unspecified)	> 100	> 100	> 100	> 100	> 100	> 100	> 100	> 100	> 100	> 100	> 100	–	> 100	–	–
O=C1C(c2ccccc2)=C(c2ccccc2)C(c2ccc(Sc3ccc(C4=C(c5ccccc5)C(=O)C(c5ccccc5)=C4c4ccccc4)cc3)cc2)=C1c1ccccc1	> 100	> 100	> 100	> 100	> 100	> 100	–	> 100	> 100	> 100	> 100	> 100	–	–	–
CC(C)(C)n1c(=O)n2n(c1=O)C1c3cccc4cccc(c34)C2C2c3cccc4cccc(c34)C1n1c(=O)n(C(C)(C)C)c(=O)n12	> 100	–	–	–	> 100	–	–	–	–	–	> 100	–	–	> 100	> 100
O=C1/C(=C/c2ccc(O)c(O)c2)CC/C1=C\c1ccc(O)c(O)c1	63.2	–	–	–	> 100	–	–	–	–	–	> 100	–	–	> 100	22.3

Reference: PubChem BioAssay (NCI)
